Assay [1] deals with T1, equine serum BChE (Equus caballus, UniProt P81908).
T1 construct: human erythrocyte AChE, equine serum BChE, and porcine liver CES were used; purchased Sigma-Aldrich; host or cells: equine serum (tissue-derived)
Kind of assay: biochemical. The settings on record: mean ± SEM, n = 3, read-out: Inhibitory activity against BChE, IC50. An outline of the steps: (§1)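 Esterase sources were human erythrocyte AChE, equine serum BChE and porcine liver CES, with 4-NPA as CES substrate. Chromophore absorbance read on a plate reader. Compounds screened first at a single 20 µM concentration.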

In assay [2] the target is T2, human erythrocyte AChE (Homo sapiens, UniProt P22303).
T2 construct: human erythrocyte AChE, equine serum BChE, and porcine liver CES were used; purchased Sigma-Aldrich; host or cells: human erythrocytes (tissue-derived)
T2 sequence (P22303 32-617 isoform P22303-2 limits assumed): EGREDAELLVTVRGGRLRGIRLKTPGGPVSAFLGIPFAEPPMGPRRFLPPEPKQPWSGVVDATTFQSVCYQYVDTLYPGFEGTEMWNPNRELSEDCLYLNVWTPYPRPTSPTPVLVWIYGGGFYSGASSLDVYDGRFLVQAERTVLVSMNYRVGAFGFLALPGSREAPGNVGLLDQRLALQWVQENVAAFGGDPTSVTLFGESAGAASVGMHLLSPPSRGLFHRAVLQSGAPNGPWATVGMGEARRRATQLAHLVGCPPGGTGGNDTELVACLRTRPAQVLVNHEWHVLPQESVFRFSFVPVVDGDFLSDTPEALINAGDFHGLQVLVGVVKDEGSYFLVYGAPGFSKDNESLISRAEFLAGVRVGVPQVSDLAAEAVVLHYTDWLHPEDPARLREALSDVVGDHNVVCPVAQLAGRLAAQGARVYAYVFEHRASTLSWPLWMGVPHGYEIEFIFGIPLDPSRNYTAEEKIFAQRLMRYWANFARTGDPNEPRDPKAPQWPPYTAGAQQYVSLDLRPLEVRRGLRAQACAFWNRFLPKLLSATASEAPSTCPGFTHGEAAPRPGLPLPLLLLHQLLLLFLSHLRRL
Kind of assay: biochemical. The settings on record: mean ± SEM, n = 3, read-out: Inhibitory activity against AChE, IC50. The gist of the method: as §1

The target in assay [3] is T3, EeAChE PAS (Electrophorus electricus, UniProt O42275).
T3 construct: The enzyme was electric eel AChE (EeAChE type VI-S, lyophilized powder, Sigma-Aldrich); purchased Sigma-Aldrich type VI-S; host or cells: electric eel (tissue-derived)
T3 sequence (O42275 24-633): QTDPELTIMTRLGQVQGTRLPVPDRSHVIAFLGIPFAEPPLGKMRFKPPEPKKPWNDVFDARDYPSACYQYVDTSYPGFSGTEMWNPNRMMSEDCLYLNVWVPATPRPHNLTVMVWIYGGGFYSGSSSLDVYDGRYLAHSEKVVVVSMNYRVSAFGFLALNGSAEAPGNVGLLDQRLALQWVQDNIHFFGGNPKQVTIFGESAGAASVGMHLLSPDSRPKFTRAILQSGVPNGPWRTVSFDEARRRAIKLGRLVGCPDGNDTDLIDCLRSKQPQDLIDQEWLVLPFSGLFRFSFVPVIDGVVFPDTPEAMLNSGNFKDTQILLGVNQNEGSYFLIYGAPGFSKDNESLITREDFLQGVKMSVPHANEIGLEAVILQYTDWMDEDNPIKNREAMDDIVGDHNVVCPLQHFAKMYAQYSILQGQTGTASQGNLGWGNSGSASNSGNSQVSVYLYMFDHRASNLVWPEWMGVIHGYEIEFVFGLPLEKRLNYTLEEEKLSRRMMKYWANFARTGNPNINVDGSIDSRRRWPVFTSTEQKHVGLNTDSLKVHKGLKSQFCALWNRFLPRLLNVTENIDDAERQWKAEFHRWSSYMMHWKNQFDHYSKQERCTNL
In kind it is binding. The settings on record: compound 20 µM; EeAChE 7 µM; propidium iodide 8 µM. The gist of the method: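 Compound displacement of propidium iodide (8 μM final, added for 15 min) from the peripheral anionic site of electric eel AChE (type VI-S) in Tris buffer. Fluorescence read at 530 nm excitation/600 nm emission, in triplicate. % displacement was calculated relative to AChE plus propidium without inhibitor.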

For assay [4], the system named is porcine liver CES. Briefly: In vitro CES inhibition (4-NPA substrate). In kind it is biochemical. The settings on record: compound 20 µM, n.a. = not active. The gist of the method: as §1
Assay [5] can be described thus: ABTS radical cation scavenging assay. Details: key to ABTS^•+ Scavenging Activity, TEAC: TEAC: ratio of compound slope to Trolox slope (Trolox equivalents). The settings on record: 1 h incubation; for IC50: 50% reduction of ABTS radical cation; for ABTS^•+ Scavenging Activity, TEAC: Trolox equivalent, n.a. = not active. The gist of the method:
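Compounds (0.5–100 µM, in DMSO) mixed with ABTS•+ working solution in ethanol (100 μM final), radical pre-formed from 7 mM ABTS plus 2.45 mM persulfate for 12–16 h in the dark. Absorbance decrease at 734 nm after 1 h at 30 °C. TEAC derived as slope ratio of absorbance-versus-concentration lines, compound versus Trolox.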

Molecules are shown by their SMILES. Several values for one entry are separate records, joined by “and”; a condition that tells them apart may be missing. Equal entries are not always repeated. Where only a bound is given, the exact number is not on record here.

T1 sequence (P81908 whole entry): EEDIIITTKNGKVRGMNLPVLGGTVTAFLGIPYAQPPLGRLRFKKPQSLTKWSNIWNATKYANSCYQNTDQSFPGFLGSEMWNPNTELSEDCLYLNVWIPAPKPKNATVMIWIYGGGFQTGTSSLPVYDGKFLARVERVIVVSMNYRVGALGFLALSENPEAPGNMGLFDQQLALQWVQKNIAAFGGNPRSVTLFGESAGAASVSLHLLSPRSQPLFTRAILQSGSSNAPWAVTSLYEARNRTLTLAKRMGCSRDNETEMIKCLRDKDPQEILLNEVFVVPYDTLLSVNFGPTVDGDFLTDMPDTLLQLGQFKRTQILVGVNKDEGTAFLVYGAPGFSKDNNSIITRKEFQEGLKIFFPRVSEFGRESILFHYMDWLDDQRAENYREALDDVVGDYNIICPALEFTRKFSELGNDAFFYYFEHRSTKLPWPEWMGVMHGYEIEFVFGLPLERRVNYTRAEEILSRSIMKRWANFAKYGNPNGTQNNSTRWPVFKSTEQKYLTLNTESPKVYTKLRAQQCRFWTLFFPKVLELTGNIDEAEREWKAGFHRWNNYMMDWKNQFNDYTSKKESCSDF

A word on the IC50: it is the concentration needed to halve the response being measured. `O=C(NCCCCCCNc1c2c(nc3ccccc13)CCCC2)c1ccccc1O` [5b]: the IC50 in assay [1] is 11.9 ± 0.1 nM; in assay [2] it was 294 ± 8 nM; in assay [5] it was 21300 ± 1500 nM. Also, the “Propidium Displacement from EeAChE PAS” value in assay [3] is 12.6 ± 1.0%. For the same compound, in assay [4], the “Inhibitory activity against CES, inhibition at 20 µM” value (“Inhibitory activity against CES” for short) was determined as 19.5 ± 0.9%. Moreover, the “ABTS^•+ Scavenging Activity, TEAC” value in assay [5] is 0.93 and 0.90 ± 0.05.
Consider `O=C(NCCCCCCNc1c2c(nc3ccccc13)CCCC2)c1cc(F)c(F)cc1O` [7b], for which the IC50 in assay [1] was 31.7 ± 3 nM; in assay [2], 249 ± 17 nM; in assay [5], > 200000 nM. Moreover, in assay [3], the “Propidium Displacement from EeAChE PAS” value is reported as 12.2 ± 0.9%. In assay [4], the “Inhibitory activity against CES” value turned out to be 7.1 ± 1.0%. The “ABTS^•+ Scavenging Activity, TEAC” value in assay [5] amounted to 0.030 ± 0.001.
Regarding `O=C(NCCCCCCCCNc1c2c(nc3ccccc13)CCCC2)c1cc(F)c(F)cc1O` [7c], the 50% inhibitory concentration (IC50) in assay [1] was 22.6 ± 1.8 nM; in assay [2] it was 188 ± 15 nM; in assay [5], > 200000 nM. For the same compound, in assay [3], the “Propidium Displacement from EeAChE PAS” value is 13.6 ± 1.0%. Besides, the “Inhibitory activity against CES” value in assay [4] was found to be 8.6 ± 0.7%. Besides, the “ABTS^•+ Scavenging Activity, TEAC” value in assay [5] turned out to be 0.040 ± 0.002.
Consider `Oc1ccccc1/C=N/CCCCCCCCNc1c2c(nc3ccccc13)CCCC2` [10c], for which the IC50 was 15.6 ± 1.2 nM in assay [1], 82.6 ± 4.6 nM in assay [2] and 34200 ± 1800 nM in assay [5]. Moreover, the “Propidium Displacement from EeAChE PAS” value in assay [3] is listed as 19.8 ± 1.7%. Further, in assay [4], the “Inhibitory activity against CES” value is given as 23.0 ± 0.3%. Also, in assay [5], the “ABTS^•+ Scavenging Activity, TEAC” value stood at 0.42 ± 0.04.
